16 molecules from ChEMBL document CHEMBL3044591, “Biological Activity of Some 2-Arylamino-4-aryloxyacetyl-2-1, 3, 4-thiadiazolidine Derivatives” (1994) can be followed below.

Common to all, as to format: functional
Assay [1] has as its system Bipolaris oryzae. Kind of assay: Fungicidal activity against Bipolaris oryzae assessed as inhibition at 10 ppm measured after 96 hr by agar growth technique.
Assay [2] deals with Bipolaris oryzae. Kind of assay: Fungicidal activity against Bipolaris oryzae assessed as inhibition at 100 ppm measured after 96 hr by agar growth technique.
The subject of assay [3] is Bipolaris oryzae. Description: Fungicidal activity against Bipolaris oryzae assessed as inhibition at 1000 ppm measured after 96 hr by agar growth technique.
Assay [4] has as its system Aspergillus niger. Description: Fungicidal activity against Aspergillus niger assessed as inhibition at 10 ppm measured after 96 hr by agar growth technique.
In assay [5] the test system is Aspergillus niger. Kind of assay: Fungicidal activity against Aspergillus niger assessed as inhibition at 100 ppm measured after 96 hr by agar growth technique.
Assay [6] deals with Setaria viridis. Kind of assay: Herbicidal activity against Setaria viridis (green foxtail) assessed as killing at 6 kg/ha by post-emergent activity assay.
In assay [7] the test system is Aspergillus niger. Description: Fungicidal activity against Aspergillus niger assessed as inhibition at 1000 ppm measured after 96 hr by agar growth technique.
Assay [8] concerns Abutilon theophrasti. Kind of assay: Herbicidal activity against Abutilon theophrasti (velvetleaf) assessed as killing at 6 kg/ha by post-emergent activity assay.
Assay [9] has as its system Echinochloa crus-galli. Description: Herbicidal activity against Echinochloa crus-galli (barnyard grass) assessed as killing at 6 kg/ha by post-emergent activity assay.
For assay [10], the system named is Triticum aestivum. Description: Herbicidal activity against Triticum aestivum (wheat) assessed as killing at 6 kg/ha by post-emergent activity assay.
Assay [11] has as its system Sorghum halepense. Description: Herbicidal activity against Sorghum halepense (Johnson grass) assessed as killing at 6 kg/ha by post-emergent activity assay.

A word on the inhibition: it is the share of the control response that was lost under treatment. For the molecule `COc1ccc(NC2=NN(C(=O)COc3ccccc3Cl)C(C)(C)S2)cc1`, the inhibition at 10 ppm came out at 31% in assay [1] and 37% in assay [4]. For the same molecule, the inhibition at 100 ppm in [2] turned out to be 53%; in [5], 56%. Besides, the inhibition at 1000 ppm was determined as 60% in assay [3] and 65% in [7]. Further, the Activity worked out at 100% in assay [6]; 100% in [8]; 100% in assay [9]; 10% in assay [10]; 100% in assay [11].
Regarding `Cc1ccc(NC2=NN(C(=O)COc3cccc(C)c3)C(C)(C)S2)cc1`, the results for the inhibition at 10 ppm in assay [1] and in assay [4] were 48% and 54%, respectively. Besides, the inhibition at 100 ppm in assay [2] was found to be 63%; in assay [5] it was 68%. The inhibition at 1000 ppm in assay [3] is 71%; in assay [7] it was 75%. Further, the Activity in assay [6] was 20%; in assay [8] it was 30%; in assay [9], 60%; in [10], 15%; in assay [11], 50%.
With `Cc1ccc(NC2=NN(C(=O)COc3ccccc3Cl)C(C)(C)S2)cc1`, the inhibition at 10 ppm in assay [1] turned out to be 32%; in assay [4], 49%. The inhibition at 100 ppm in [2] turned out to be 44%; in [5] it was 52%. The inhibition at 1000 ppm in assay [3] was 56%; in assay [7], 63%. Moreover, the Activity in [6] came to 50%; in [8], 50%; in assay [9] it was 20%; in assay [10], 30%; in [11], 50%.
On to `Cc1cccc(OCC(=O)N2N=C(Nc3ccc(Cl)cc3)SC2(C)C)c1`, for which the inhibition at 10 ppm in [1] was 38%; in assay [4], 48%. Besides, the results for the inhibition at 100 ppm in assay [2] and in assay [5] were 47% and 54%, respectively. The results for the inhibition at 1000 ppm in assay [3] and in assay [7] were 59% and 63%, respectively. The Activity in [6] was 50%; in [8] it was 40%; in assay [9], 50%; in assay [10], 10%; in assay [11], 60%.
With `CC1(C)SC(Nc2ccccc2)=NN1C(=O)COc1ccccc1Cl`, the inhibition at 10 ppm in [1] came out at 31%; in assay [4] it was 51%. In addition, the inhibition at 100 ppm in assay [2] worked out at 42%; in assay [5] it was 44%. Besides, the inhibition at 1000 ppm in assay [3] came to 52%; in assay [7] it was 56%. Moreover, the Activity stood at 50% in assay [6]; 40% in [8]; 60% in [9]; 20% in assay [10]; 70% in assay [11].
Consider `CC1(C)SC(Nc2ccc(Cl)cc2)=NN1C(=O)COc1ccccc1Cl`, for which the inhibition at 10 ppm in assay [1] came out at 39%; in assay [4], 49%. For the same molecule, the inhibition at 100 ppm was determined as 48% in assay [2] and 50% in assay [5]. Besides, the inhibition at 1000 ppm in assay [3] was determined as 58%; in [7], 62%. For the same molecule, the Activity was determined as 50% in [6]; 40% in assay [8]; 50% in assay [9]; 10% in assay [10]; 30% in assay [11].
With `CC1(C)SC(Nc2ccccc2)=NN1C(=O)COc1ccc(Cl)cc1`, the inhibition at 10 ppm in assay [1] amounted to 59%; in [4] it was 45%. For the same molecule, the figures for the inhibition at 100 ppm in [2] and in assay [5] were 67% and 69%, respectively. Besides, the figures for the inhibition at 1000 ppm in assay [3] and in assay [7] were 76% and 78%, respectively. In addition, the Activity in assay [6] amounted to 40%; in assay [8], 40%; in assay [9] it was 50%; in assay [10], 0%; in assay [11], 60%.
Regarding `COc1ccc(NC2=NN(C(=O)COc3cccc(C)c3)C(c3ccccc3)S2)cc1` (stereo unspecified), the figures for the inhibition at 10 ppm in [1] and in assay [4] were 50% and 51%, respectively. For the same molecule, the results for the inhibition at 100 ppm in assay [2] and in assay [5] were 65% and 67%, respectively. Further, the inhibition at 1000 ppm in assay [3] is 72%; in assay [7], 74%. Besides, the Activity in assay [6] was found to be 100%; in assay [8], 100%; in assay [9], 100%; in assay [10], 10%; in assay [11], 100%.
Consider `Cc1ccc(NC2=NN(C(=O)COc3cccc(C)c3)C(c3ccccc3)S2)cc1` (stereo unspecified), for which the inhibition at 10 ppm in assay [1] is 46%; in assay [4] it was 47%. Moreover, the inhibition at 100 ppm was found to be 61% in assay [2] and 62% in assay [5]. Further, the inhibition at 1000 ppm in assay [3] was 68%; in [7], 70%. Also, the Activity in assay [6] amounted to 20%; in [8] it was 60%; in assay [9] it was 30%; in assay [10] it was 10%; in [11], 50%.
As to `Cc1cccc(OCC(=O)N2N=C(Nc3ccc(Cl)cc3)SC2c2ccccc2)c1` (stereo unspecified), the inhibition at 10 ppm was found to be 38% in assay [1] and 40% in [4]. Besides, the figures for the inhibition at 100 ppm in assay [2] and in assay [5] were 48% and 49%, respectively. Further, the inhibition at 1000 ppm in [3] came to 58%; in assay [7], 62%. Besides, the Activity was determined as 50% in assay [6]; 50% in assay [8]; 60% in [9]; 15% in [10]; 60% in assay [11].
As for `Cc1cccc(OCC(=O)N2N=C(Nc3ccccc3)SC2c2ccccc2)c1` (stereo unspecified), the inhibition at 10 ppm was 39% in assay [1] and 38% in [4]. For the same molecule, the inhibition at 100 ppm turned out to be 49% in assay [2] and 54% in assay [5]. The inhibition at 1000 ppm stood at 61% in assay [3] and 67% in assay [7]. Besides, the Activity in assay [6] is 60%; in [8], 60%; in assay [9], 60%; in [10], 0%; in assay [11], 60%.
In the case of `COc1ccc(NC2=NN(C(=O)COc3ccccc3Cl)C(c3ccccc3)S2)cc1` (stereo unspecified), the inhibition at 10 ppm in assay [1] and in [4] was 44% each time. Moreover, the inhibition at 100 ppm stood at 58% in assay [2] and 59% in assay [5]. Moreover, the values for the inhibition at 1000 ppm in [3] and in assay [7] were 63% and 65%, respectively. In addition, the Activity was 100% in [6]; 100% in assay [8]; 100% in assay [9]; 10% in [10]; 90% in [11].
With `Cc1ccc(NC2=NN(C(=O)COc3ccccc3Cl)C(c3ccccc3)S2)cc1` (stereo unspecified), the inhibition at 10 ppm worked out at 39% in [1] and 43% in assay [4]. The figures for the inhibition at 100 ppm in [2] and in [5] were 50% and 52%, respectively. Also, the inhibition at 1000 ppm in assay [3] amounted to 60%; in [7], 65%. Moreover, the Activity in assay [6] worked out at 50%; in assay [8], 40%; in assay [9] it was 50%; in [10], 30%; in assay [11], 60%.
As to `O=C(COc1ccccc1Cl)N1N=C(Nc2ccc(Cl)cc2)SC1c1ccccc1` (stereo unspecified), the inhibition at 10 ppm in assay [1] and in assay [4] was 78% each time. Moreover, the inhibition at 100 ppm in assay [2] amounted to 80%; in assay [5], 83%. Besides, the inhibition at 1000 ppm in assay [3] and in assay [7] was 92% in each case. Also, the Activity in [6] came out at 60%; in [8], 50%; in assay [9], 60%; in assay [10], 25%; in assay [11], 40%.
With `COc1ccc(NC2=NN(C(=O)COc3cccc(C)c3)C(C)(C)S2)cc1`, the inhibition at 10 ppm was found to be 36% in [1] and 43% in assay [4]. Moreover, the inhibition at 100 ppm was found to be 54% in [2] and 58% in [5]. Moreover, the results for the inhibition at 1000 ppm in [3] and in assay [7] were 65% and 69%, respectively. Besides, the Activity in [6] was determined as 100%; in assay [8], 100%; in assay [9], 100%; in [10] it was 10%; in assay [11] it was 100%.
`O=C(COc1ccccc1Cl)N1N=C(Nc2ccccc2)SC1c1ccccc1` (stereo unspecified): the inhibition at 10 ppm is 75% in assay [1] and 77% in assay [4]. Also, the results for the inhibition at 100 ppm in [2] and in assay [5] were 80% and 82%, respectively. Also, the inhibition at 1000 ppm in assay [3] came out at 90%; in [7], 92%. For the same molecule, the Activity amounted to 50% in assay [6]; 50% in [8]; 50% in assay [9]; 20% in assay [10]; 60% in assay [11].
